# Like-named read-outs stand apart in the source and are kept apart here.
# Legend:
# [1] = system: A. baumannii AB5075 transposon disruption mutants; experiment: microbe, parasite or virus in culture; type: cell-based, Acinetobacter baumannii; settings: for MIC: Acinetobacter baumannii
# LAC-4 = type: in vivo, Galleria mellonella; settings: G. mellonella
# A. baumannii ATCC 17978 = experiment: IC50 dose response, inhibition of bacterial growth (BacTiter-Glo viability); type: cell-based, Acinetobacter baumannii; settings: Acinetobacter baumannii, 11-point dose response
compound,measurement,setting,value
CO[C@H]1/C=C/O[C@@]2(C)Oc3c(C)c(O)c4c(c3C2=O)C2=NC3(CCN(CC(C)C)CC3)NC2=C(NC(=O)/C(C)=C\C=C\[C@H](C)[C@H](O)[C@@H](C)[C@@H](O)[C@@H](C)[C@H](OC(C)=O)[C@@H]1C)C4=O [rifabutin],Rifabutin MIC,"[1]; AB06383, disrupted gene hisJ, RPMI, listed as RBT",0.05 µg/mL
same,Rifabutin MIC,"[1]; AB06386, disrupted gene hisP, RPMI, listed as RBT",0.05 µg/mL
same,Rifabutin MIC,"[1]; AB06392, disrupted gene hisP, RPMI, listed as RBT",0.05 µg/mL
same,Rifabutin MIC,"[1]; AB06694, ABUW_2539 (IS4 family transposase), MHII",3.13 µg/mL
same,Rifabutin MIC,"[1]; AB06694, ABUW_2539 (IS4 family transposase), RPMI",0.05 µg/mL
same,Rifabutin MIC,"[1]; AB06695, ABUW_2539, MHII",3.13 µg/mL
same,Rifabutin MIC,"[1]; AB06695, ABUW_2539, RPMI",0.05 µg/mL
same,Rifabutin MIC,"[1]; AB06731, ABUW_2557 (hypothetical protein(epoxyqueuosine reductase QueH)), MHII",3.13 µg/mL
same,Rifabutin MIC,"[1]; AB06731, ABUW_2557 (hypothetical protein(epoxyqueuosine reductase QueH)), RPMI",0.05 µg/mL
same,Rifabutin MIC,"[1]; AB06732, ABUW_2557, MHII",6.25 µg/mL
same,Rifabutin MIC,"[1]; AB06732, ABUW_2557, RPMI",0.05 µg/mL
same,Rifabutin MIC,"[1]; AB06821, ABUW_2586 (allophanate hydrolase), MHII",3.13 µg/mL
same,Rifabutin MIC,"[1]; AB06821, ABUW_2586 (allophanate hydrolase), RPMI",0.05 µg/mL
same,Rifabutin MIC,"[1]; AB06822, ABUW_2586, MHII",3.13 µg/mL
same,Rifabutin MIC,"[1]; AB06822, ABUW_2586, RPMI",0.05 µg/mL
same,Rifabutin MIC,"[1]; AB07354, disrupted gene aroP, RPMI, listed as RBT",0.05 µg/mL
same,Rifabutin MIC,"[1]; AB07356, disrupted gene aroP, RPMI, listed as RBT",0.05 µg/mL
same,Rifabutin MIC,"[1]; AB07566, ABUW_2893 (hypothetical protein), MHII",0.78 µg/mL
same,Rifabutin MIC,"[1]; AB07566, ABUW_2893 (hypothetical protein), RPMI",0.05 µg/mL
same,Rifabutin MIC,"[1]; AB07567, ABUW_2893, MHII",0.78 µg/mL
same,Rifabutin MIC,"[1]; AB07567, ABUW_2893, RPMI",0.05 µg/mL
same,Rifabutin MIC,"[1]; AB07813, disrupted gene mtr, RPMI, listed as RBT",0.05 µg/mL
same,Rifabutin MIC,"[1]; AB09112, ABUW_3470 (Zn-dependent hydrolase), MHII",0.78 µg/mL
same,Rifabutin MIC,"[1]; AB09112, ABUW_3470 (Zn-dependent hydrolase), RPMI",0.05 µg/mL
same,Rifabutin MIC,"[1]; AB09114, ABUW_3470, MHII",0.78 µg/mL
same,Rifabutin MIC,"[1]; AB09114, ABUW_3470, RPMI",0.05 µg/mL
same,Rifabutin MIC,"[1]; AB09979, disrupted gene aroP, RPMI, listed as RBT",0.05 µg/mL
same,Rifabutin MIC,"[1]; AB09980, disrupted gene tryP, RPMI, listed as RBT",0.05 µg/mL
same,Rifabutin MIC,"[1]; AB09982, disrupted gene tryP, RPMI, listed as RBT",0.05 µg/mL
same,Rifabutin MIC,"[1]; AB10057, ABUW_3811 (DID), MHII",3.13 µg/mL
same,Rifabutin MIC,"[1]; AB10057, ABUW_3811 (DID), RPMI",0.05 µg/mL
same,Rifabutin MIC,"[1]; AB10058, ABUW_3811, MHII",3.13 µg/mL
same,Rifabutin MIC,"[1]; AB10058, ABUW_3811, RPMI",0.05 µg/mL
same,MIC,"[1]; read-out: Rifabutin MIC, AB00188, disrupted gene aroP, MHII",3.13 µg/mL
same,MIC,"[1]; read-out: Rifabutin MIC, AB00188, disrupted gene aroP, RPMI",< 0.05 µg/mL
same,MIC,"[1]; read-out: Rifabutin MIC, AB00190, disrupted gene aroP, MHII",6.25 µg/mL
same,MIC,"[1]; read-out: Rifabutin MIC, AB00190, disrupted gene aroP, RPMI",< 0.05 µg/mL
same,MIC,"[1]; read-out: Rifabutin MIC, AB00215, disrupted gene tryP, MHII",6.25 µg/mL
same,MIC,"[1]; read-out: Rifabutin MIC, AB00215, disrupted gene tryP, RPMI",< 0.05 µg/mL
same,MIC,"[1]; read-out: Rifabutin MIC, AB00216, disrupted gene tryP, MHII",1.56 µg/mL
same,MIC,"[1]; read-out: Rifabutin MIC, AB00216, disrupted gene tryP, RPMI",< 0.05 µg/mL
same,MIC,"[1]; read-out: Rifabutin MIC, AB02204, disrupted gene aroP, MHII",6.25 µg/mL
same,MIC,"[1]; read-out: Rifabutin MIC, AB02204, disrupted gene aroP, RPMI",< 0.05 µg/mL
same,MIC,"[1]; read-out: Rifabutin MIC, AB02205, disrupted gene aroP, MHII",3.13 µg/mL
same,MIC,"[1]; read-out: Rifabutin MIC, AB02205, disrupted gene aroP, RPMI",< 0.05 µg/mL
same,MIC,"[1]; read-out: Rifabutin MIC, AB03015, disrupted gene aroP, MHII",6.25 µg/mL
same,MIC,"[1]; read-out: Rifabutin MIC, AB03015, disrupted gene aroP, RPMI",< 0.05 µg/mL
same,MIC,"[1]; read-out: Rifabutin MIC, AB03608, disrupted gene hisJ, MHII",3.13 µg/mL
same,MIC,"[1]; read-out: Rifabutin MIC, AB03608, disrupted gene hisJ, RPMI",< 0.05 µg/mL
same,MIC,"[1]; read-out: Rifabutin MIC, AB03612, disrupted gene hisM, MHII",3.13 µg/mL
same,MIC,"[1]; read-out: Rifabutin MIC, AB03612, disrupted gene hisM, RPMI",< 0.05 µg/mL
same,MIC,"[1]; read-out: Rifabutin MIC, AB03616, disrupted gene hisM, MHII",6.25 µg/mL
same,MIC,"[1]; read-out: Rifabutin MIC, AB03616, disrupted gene hisM, RPMI",< 0.05 µg/mL
same,MIC,"[1]; read-out: Rifabutin MIC, AB03618, disrupted gene hisM, MHII",6.25 µg/mL
same,MIC,"[1]; read-out: Rifabutin MIC, AB03618, disrupted gene hisM, RPMI",< 0.05 µg/mL
same,MIC,"[1]; read-out: Rifabutin MIC, AB5075-UW (parent strain), MHII",6.25 µg/mL
same,MIC,"[1]; read-out: Rifabutin MIC, AB5075-UW (parent strain), RPMI",< 0.05 µg/mL
same,MIC,"[1]; read-out: Rifabutin MIC, AB06105, disrupted gene aroP, MHII",3.13 µg/mL
same,MIC,"[1]; read-out: Rifabutin MIC, AB06105, disrupted gene aroP, RPMI",< 0.05 µg/mL
same,MIC,"[1]; read-out: Rifabutin MIC, AB06383, disrupted gene hisJ, MHII",6.25 µg/mL
same,MIC,"[1]; read-out: Rifabutin MIC, AB06383, disrupted gene hisJ, RPMI",< 0.05 µg/mL
same,MIC,"[1]; read-out: Rifabutin MIC, AB06386, disrupted gene hisP, MHII",0.78 µg/mL
same,MIC,"[1]; read-out: Rifabutin MIC, AB06386, disrupted gene hisP, RPMI",< 0.05 µg/mL
same,MIC,"[1]; read-out: Rifabutin MIC, AB06392, disrupted gene hisP, MHII",0.78 µg/mL
same,MIC,"[1]; read-out: Rifabutin MIC, AB06392, disrupted gene hisP, RPMI",< 0.05 µg/mL
same,MIC,"[1]; read-out: Rifabutin MIC, AB07354, disrupted gene aroP, MHII",6.25 µg/mL
same,MIC,"[1]; read-out: Rifabutin MIC, AB07354, disrupted gene aroP, RPMI",< 0.05 µg/mL
same,MIC,"[1]; read-out: Rifabutin MIC, AB07356, disrupted gene aroP, MHII",1.56 µg/mL
same,MIC,"[1]; read-out: Rifabutin MIC, AB07356, disrupted gene aroP, RPMI",< 0.05 µg/mL
same,MIC,"[1]; read-out: Rifabutin MIC, AB07813, disrupted gene mtr, MHII",25 µg/mL
same,MIC,"[1]; read-out: Rifabutin MIC, AB07813, disrupted gene mtr, RPMI",< 0.05 µg/mL
same,MIC,"[1]; read-out: Rifabutin MIC, AB09979, disrupted gene aroP, MHII",0.78 µg/mL
same,MIC,"[1]; read-out: Rifabutin MIC, AB09979, disrupted gene aroP, RPMI",< 0.05 µg/mL
same,MIC,"[1]; read-out: Rifabutin MIC, AB09980, disrupted gene tryP, MHII",3.13 µg/mL
same,MIC,"[1]; read-out: Rifabutin MIC, AB09980, disrupted gene tryP, RPMI",< 0.05 µg/mL
same,MIC,"[1]; read-out: Rifabutin MIC, AB09982, disrupted gene tryP, MHII",6.25 µg/mL
same,MIC,"[1]; read-out: Rifabutin MIC, AB09982, disrupted gene tryP, RPMI",< 0.05 µg/mL
same,efficacy RBT vs RIF,LAC-4,no difference in efficacy
same,IC50,"A. baumannii ATCC 17978; ATCC17978, 24 h, ATCC 17978, RPMI + 50% Serum",< 0.847 nM
same,IC50,"A. baumannii ATCC 17978; ATCC17978, ATCC 17978, RPMI + 50% Serum",< 0.847 nM
same,IC50,"A. baumannii ATCC 17978; ATCC17978, ATCC 17978, RPMI",24 nM
